The record followed here is patent US20230144824A1, “1H-PYRAZOLO[4,3-d]PYRIMIDINE COMPOUNDS AS TOLL-LIKE RECEPTOR 7 (TLR7) AGONISTS” (BRISTOL-MYERS SQUIBB COMPANY, priority 2020, published 2023).

For assay [1], the target named is T1, human TLR7 (Homo sapiens, UniProt Q9NYK1).
T1 construct: host or cells: HEK-Blue TLR7 cells (engineered human embryonic kidney cells)
T1 sequence (Q9NYK1 27-1049): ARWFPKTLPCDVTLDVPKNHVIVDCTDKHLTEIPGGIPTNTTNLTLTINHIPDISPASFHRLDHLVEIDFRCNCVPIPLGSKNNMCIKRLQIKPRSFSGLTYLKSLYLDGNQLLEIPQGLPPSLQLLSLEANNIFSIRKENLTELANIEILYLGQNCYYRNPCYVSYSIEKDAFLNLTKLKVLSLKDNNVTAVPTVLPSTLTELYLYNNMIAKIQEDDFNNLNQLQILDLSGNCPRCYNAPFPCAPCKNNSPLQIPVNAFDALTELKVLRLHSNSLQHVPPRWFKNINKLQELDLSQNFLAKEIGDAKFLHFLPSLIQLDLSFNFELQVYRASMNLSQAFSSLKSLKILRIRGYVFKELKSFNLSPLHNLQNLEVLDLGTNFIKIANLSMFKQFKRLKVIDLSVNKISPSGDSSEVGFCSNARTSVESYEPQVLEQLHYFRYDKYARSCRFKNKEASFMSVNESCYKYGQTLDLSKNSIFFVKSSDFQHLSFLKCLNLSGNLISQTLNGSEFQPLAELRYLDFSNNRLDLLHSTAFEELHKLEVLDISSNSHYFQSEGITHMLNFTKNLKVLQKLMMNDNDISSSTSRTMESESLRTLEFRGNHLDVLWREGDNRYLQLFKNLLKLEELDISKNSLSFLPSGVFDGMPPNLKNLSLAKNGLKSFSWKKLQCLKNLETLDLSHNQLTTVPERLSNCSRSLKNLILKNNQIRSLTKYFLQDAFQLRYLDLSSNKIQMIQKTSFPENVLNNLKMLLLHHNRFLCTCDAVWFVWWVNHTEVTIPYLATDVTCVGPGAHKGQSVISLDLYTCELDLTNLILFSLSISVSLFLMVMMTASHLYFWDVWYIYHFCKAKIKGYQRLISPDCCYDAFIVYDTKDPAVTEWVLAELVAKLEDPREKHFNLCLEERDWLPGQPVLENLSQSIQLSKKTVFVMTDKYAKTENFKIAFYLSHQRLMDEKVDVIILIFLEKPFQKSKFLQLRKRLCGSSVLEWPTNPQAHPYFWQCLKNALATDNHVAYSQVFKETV
Briefly: Human TLR7 agonist activity assay (HEK-Blue TLR7 SEAP reporter). The conditions noted are these: HEK-Blue TLR7 cells, 18 h treatment, average where assay performed multiple times, read-out: hTLR7 Agonism EC50. It counts as cell-based. How it is done: This procedure describes a method for assaying human TLR7 (hTLR7) agonist activity of the compounds disclosed in this specification.
HEK-Blue™ TLR7 cells were added to each well of a 384-well tissue-culture plate (15,000 cells per well) and incubated 16-18 h at 37° C., 5% CO2. Compounds (100 nl) were dispensed into wells containing the HEK-Blue™ TLR cells and the treated cells were incubated at 37° C., 5% CO2. After 18 h treatment ten microliters of freshly-prepared Quanti-Blue™ reagent (Invivogen) was added to each well, incubated for 30 min (37° C., 5% CO2) and SEAP levels measured using an Envision plate reader (OD=620 nm). The half maximal effective concentration values (EC50; compound concentration which induced a response halfway between the assay baseline and maximum) were calculated.

Assay [2] has as its system CD69. Briefly: Induction of CD69 in human whole blood. It counts as cell-based. As to conditions: Homo sapiens, 17 h, 100% set to 1 uM of resiquimod, average where assay performed multiple times, read-out: hWB CD69 EC50. How it is done: The induction of Type I interferon (IFN) MX-1 genes and the B-cell activation marker CD69 are downstream events that occur upon activation of the TLR7 pathway. The following is a human whole blood assay that measures their induction in response to a TLR7 agonist.
Heparinized human whole blood was harvested from human subjects and treated with test TLR7 agonist compounds at 1 mM. The blood was diluted with RPMI 1640 media and Echo was used to predot 10 nL per well giving a final concentration of 1 uM (10 nL in 10 uL of blood). After mixing on a shaker for 30 sec, the plates were covered and placed in a 37° C. chamber for o/n=17 hrs. Fixing/lysis buffer was prepared (5×->1× in H2O, warm at 37° C.; Cat #BD 558049) and kept the perm buffer (on ice) for later use.
For surface markers staining (CD69): prepared surface Abs: 0.045 ul hCD14-FITC (ThermoFisher Cat #MHCD1401)+0.6 ul hCD19-ef450 (ThermoFisher Cat #48-0198-42)+1.5 ul hCD69-PE (cat #BD555531)+0.855 ul FACS buffer. Added 3 ul/well, spin1000 rpm for 1 min and mixed on shaker for 30 sec, put on ice for 30 mins. Stop stimulation after 30 minutes with 70 uL of prewarmed 1× fix/lysis buffer and use Feliex mate to resuspend (15 times, change tips for each plate) and incubate at 37 C for 10 minutes.
Centrifuge at 2000 rpm for 5 minutes aspirate with HCS plate washer, mix on shaker for 30 sec and then wash with 70 uL in dPBS and pelleted 2×s (2000 rpm for 5 min) and 50 ul wash in FACS buffer pelleted 1×s (2000 rpm for 5 min). Mix on shaker for 30 sec. For Intracellular markers staining (MX-1): Add 50 ul of BD Perm buffer III and mix on shaker for 30 sec. Incubate on ice for 30 minutes (in the dark). Wash with 50 uL of FACS buffer 2×(spin @2300 rpm×5 min after perm) followed by mixing on shaker for 30 sec. Resuspended in 20 ul of FACS buffer containing MX1 antibody ( )(4812)-Alexa 647: Novus Biologicals #NBP2-43704AF647) 20 ul FACS bf+0.8 ul hIgG+0.04 ul MX-1. Spin 1000 rpm for 1 min, mix on shaker for 30 se and the samples were incubated at RT in the dark for 45 minutes followed by washing 2×FACS buffer (spin @2300 rpm×5 min after perm). Resuspend 20 ul (35 uL total per well) of FACS buffer and cover with foil and place in 4° C. to read the following day. Plates were read on iQuePlus. The results were loaded into toolset and IC50 curves are generated in curve master. The y-axis 100% is set to 1 uM of resiquimod.

As usually defined, the EC50 is the concentration that produces a half-maximal response. Consider `CCC[C@@H](CCO)Nc1nc(N)nc2cnn(Cc3ncc(C4CCN(C(=O)CCN(C)C)CC4)cc3OC)c12` [Compound 136, 1-(4-{6-[(5-amino-7-{[(3S)-1-hydroxyhexan-3-yl]amino}-1H-pyrazolo[4,3-d]pyrimidin-1-yl)methyl]-5-methoxypyridin-3-yl}piperidin-1-yl)-3-(dimethylamino)propan-1-one], for which the EC50 in assay [1] was found to be 197 nM; in assay [2] it was 42.3 nM.
For `CCCCNc1nc(N)nc2cnn(Cc3ncc(C4=CC(C)(C)NC(C)(C)C4)cc3OC)c12` [Compound 169, N7-butyl-1-({5-methoxy-2′,2′,6′,6′-tetramethyl-1′,2′,3′,6′-tetrahydro-[3,4′-bipyridine]-6-yl}methyl)-1H-pyrazolo[4,3-d]pyrimidine-5,7-diamine], in that order: 496 nM and 121 nM.
`CCCCNc1nc(N)nc2cnn(Cc3cc(F)c(N4CCN(S(C)(=O)=O)CC4)cc3OC)c12` [Compound 193, N7-butyl-1-{[5-fluoro-4-(4-methanesulfonylpiperazin-1-yl)-2-methoxyphenyl]methyl}-1H-pyrazolo[4,3-d]pyrimidine-5,7-diamine]: the EC50 in assay [1] is 84.9 nM; in assay [2], 529 nM.
For `CCCCNc1nc(N)nc2cnn(Cc3ncc(C4CCN(C(=O)CN(C)C)CC4)cc3OC)c12` [Compound 128, 1-[4-(6-{[5-amino-7-(butylamino)-1H-pyrazolo[4,3-d]pyrimidin-1-yl]methyl}-5-methoxypyridin-3-yl)piperidin-1-yl]-2-(dimethylamino)ethan-1-one], in that order: 48.4 nM and 3.5 nM.
For `CCCCNc1nc(N)nc2cnn(Cc3ncc(C4CCN(C5CCS(=O)(=O)CC5)CC4)cc3OC)c12` [Compound 116, 4-[4-(6-{[5-amino-7-(butylamino)-1H-pyrazolo[4,3-d]pyrimidin-1-yl]methyl}-5-methoxypyridin-3-yl)piperidin-1-yl]-1λ^6-thiane-1,1-dione], in that order: 84.6 nM and 10.5 nM.
For `CCC[C@@H](CCO)Nc1nc(N)nc2cnn(Cc3cnc(C4CCN(C5CCOCC5)CC4)cc3OC)c12` [Compound 168, (3S)-3-{[5-amino-1-({4-methoxy-6-[1-(oxan-4-yl)piperidin-4-yl]pyridin-3-yl}methyl)-1H-pyrazolo[4,3-d]pyrimidin-7-yl]amino}hexan-1-ol], in that order: 6.8 nM and 0.47 nM.
For `CCCCNc1nc(N)nc2cnn(Cc3ncc(C4CCN(C(=O)CCN(C)C)CC4)cc3OC)c12` [Compound 109, 1-[4-(6-{[5-amino-7-(butylamino)-1H-pyrazolo[4,3-d]pyrimidin-1-yl]methyl}-5-methoxypyridin-3-yl)piperidin-1-yl]-3-(dimethylamino)propan-1-one], the values for the EC50 in assay [1] and in assay [2] were 215 nM and 14.5 nM, respectively.
For `CCC[C@@H](CCO)Nc1nc(N)nc2cnn(Cc3ncc(C4C[C@@H](C#N)CN4)cc3OC)c12` (mixture of isomers) [Compound 185, (3R)-5-{6-[(5-amino-7-{[(3S)-1-hydroxyhexan-3-yl]amino}-1H-pyrazolo[4,3-d]pyrimidin-1-yl)methyl]-5-methoxypyridin-3-yl}pyrrolidine-3-carbonitrile], in that order: 399 nM and 27.8 nM.
For `CCCCNc1nc(N)nc2cnn(Cc3ncc(C4CCN(C5CCOCC5)CC4)cc3OC)c12` [Compound 112, N7-butyl-1-({3-methoxy-5-[1-(oxan-4-yl)piperidin-4-yl]pyridin-2-yl}methyl)-1H-pyrazolo[4,3-d]pyrimidine-5,7-diamine], in that order: 34 nM and 5.9 nM.
For `CCC[C@@H](CCO)Nc1nc(N)nc2cnn(Cc3ncc(C4CCN(C)CC4)cc3OC)c12` [Compound 134, (3S)-3-[(5-amino-1-{[3-methoxy-5-(1-methylpiperidin-4-yl)pyridin-2-yl]methyl}-1H-pyrazolo[4,3-d]pyrimidin-7-yl)amino]hexan-1-ol], in that order: 14.1 nM and 2.6 nM.
With `CCCCNc1nc(N)nc2c(C3CC3)nn(Cc3ncc(C4CCN(C)CC4)cc3OC)c12` [Compound 107, N7-butyl-3-cyclopropyl-1-{[3-methoxy-5-(1-methylpiperidin-4-yl)pyridin-2-yl]methyl}-1H-pyrazolo[4,3-d]pyrimidine-5,7-diamine], the figures for the EC50 in assay [1] and in assay [2] were 383 nM and 444 nM, respectively.
For `CCCCNc1nc(N)nc2cnn(Cc3cc(F)c(N4CCN(C(=O)CN5CC(O)C5)CC4)cc3OC)c12` [Compound 199, 1-[4-(4-{[5-amino-7-(butylamino)-1H-pyrazolo[4,3-d]pyrimidin-1-yl]methyl}-2-fluoro-5-methoxyphenyl)piperazin-1-yl]-2-(3-hydroxyazetidin-1-yl)ethan-1-one], in that order: 339 nM and 1000 nM.
For `CCC[C@@H](CCO)Nc1nc(N)nc2cnn(Cc3ncc(C4CCN(C(C)C)CC4)cc3OC)c12` [Compound 126, (3S)-3-{[5-amino-1-({3-methoxy-5-[1-(propan-2-yl)piperidin-4-yl]pyridin-2-yl}methyl)-1H-pyrazolo[4,3-d]pyrimidin-7-yl]amino}hexan-1-ol], in that order: 15.5 nM and 2 nM.
`CCC[C@@H](CCO)Nc1nc(N)nc2cnn(Cc3ncc(C4CCN(C5CN(C(C)C)C5)CC4)cc3OC)c12` [Compound 139, (3S)-3-({5-amino-1-[(3-methoxy-5-{1-[1-(propan-2-yl)azetidin-3-yl]piperidin-4-yl}pyridin-2-yl)methyl]-1H-pyrazolo[4,3-d]pyrimidin-7-yl}amino)hexan-1-ol]: the EC50 in assay [1] amounted to 8.1 nM; in assay [2], 1.1 nM.
For `CCCCNc1nc(N)nc2cnn(Cc3ncc(C4CCN(CC(=O)N(C)C)CC4)cc3OC)c12` [Compound 120, 2-[4-(6-{[5-amino-7-(butylamino)-1H-pyrazolo[4,3-d]pyrimidin-1-yl]methyl}-5-methoxypyridin-3-yl)piperidin-1-yl]-N,N-dimethylacetamide], in that order: 79.1 nM and 2 nM.
